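Where inhibition never reached the appropriate level, the endpoint shown equals the highest concentration tested. Otherwise, values were interpolated linearly from a five-concentration, 48-hour dose response in 96-well plates. GI50 marks 50% less growth. Definition used: TGI = concentration required for complete inhibition of growth.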
Tests used:
Assay in all cases: growth of human tumour cells (NCI), 48 h
NCI-H23 lung = system: NCI-H23 lung
HCT-116 colon = system: HCT-116 colon
LOX IMVI melanoma = system: LOX IMVI melanoma
DLD-1 colon = system: DLD-1 colon
EKVX NSCLC = system: EKVX NSCLC
NCI-H522 lung = system: NCI-H522 lung
OVCAR-3 ovarian = system: OVCAR-3 ovarian
RPMI-8226 leukemia = system: RPMI-8226 leukemia
UACC-62 melanoma = system: UACC-62 melanoma
HCC-2998 colon = system: HCC-2998 colon
OVCAR-4 ovarian = system: OVCAR-4 ovarian
MOLT-4 leukemia = system: MOLT-4 leukemia
UO-31 renal = system: UO-31 renal
SNB-78 CNS = system: SNB-78 CNS
ACHN renal = system: ACHN renal
SNB-75 CNS = system: SNB-75 CNS
OVCAR-8 ovarian = system: OVCAR-8 ovarian
786-0 renal = system: 786-0 renal
IGROV1 ovarian = system: IGROV1 ovarian
RXF 393 renal = system: RXF 393 renal
NCI-H226 lung = system: NCI-H226 lung
M19-MEL melanoma = system: M19-MEL melanoma
M14 melanoma = system: M14 melanoma
NCI-H460 lung = system: NCI-H460 lung
SK-MEL-2 melanoma = system: SK-MEL-2 melanoma
HL-60(TB) leukemia = system: HL-60(TB) leukemia
A549 NSCLC = system: A549 NSCLC
SF-539 CNS = system: SF-539 CNS
KM20L2 colon = system: KM20L2 colon
HOP-92 NSCLC = system: HOP-92 NSCLC
U251 CNS = system: U251 CNS
OVCAR-5 ovarian = system: OVCAR-5 ovarian
MALME-3M melanoma = system: MALME-3M melanoma
SR leukemia = system: SR leukemia
LXFL 529 NSCLC = system: LXFL 529 NSCLC
UACC-257 melanoma = system: UACC-257 melanoma
SK-MEL-28 melanoma = system: SK-MEL-28 melanoma
DMS 114 small cell lung = system: DMS 114 small cell lung
SNB-19 CNS = system: SNB-19 CNS
A498 renal = system: A498 renal
KM12 colon = system: KM12 colon
HOP-18 NSCLC = system: HOP-18 NSCLC
SF-295 CNS = system: SF-295 CNS
HCT-15 colon = system: HCT-15 colon
DMS 273 small cell lung = system: DMS 273 small cell lung
HOP-62 NSCLC = system: HOP-62 NSCLC
SK-OV-3 ovarian = system: SK-OV-3 ovarian
SN12C renal = system: SN12C renal
K-562 leukemia = system: K-562 leukemia
COLO 205 colon = system: COLO 205 colon
TK-10 renal = system: TK-10 renal
SF-268 CNS = system: SF-268 CNS
SW-620 colon = system: SW-620 colon
CAKI-1 renal = system: CAKI-1 renal
CCRF-CEM leukemia = system: CCRF-CEM leukemia
HT29 colon = system: HT29 colon
SK-MEL-5 melanoma = system: SK-MEL-5 melanoma

Work on `CC(C)(C)c1cc2c(OP(c3ccccc3)c3ccccc3)c(c1)Cc1cc(C(C)(C)C)cc(c1OP(c1ccccc1)c1ccccc1)Cc1cc(C(C)(C)C)cc(c1OP(c1ccccc1)c1ccccc1)Cc1cc(C(C)(C)C)cc(c1OP(c1ccccc1)c1ccccc1)C2` yielded a GI50 (NCI-H23 lung) of over 50 µM, a TGI (NCI-H23 lung) of over 50 µM and a TGI (HCT-116 colon) of over 5 µM. It also gave a GI50 (LOX IMVI melanoma) of 22.9 µM, a TGI (LOX IMVI melanoma) of over 50 µM and a GI50 (DLD-1 colon) of over 50 µM. For the same compound, the TGI (DLD-1 colon) was over 50 µM, the GI50 (EKVX NSCLC) was over 50 µM and the TGI (EKVX NSCLC) was over 50 µM. For the same compound, the GI50 (NCI-H522 lung) was 44.6 µM, the TGI (NCI-H522 lung) was over 50 µM and the GI50 (OVCAR-3 ovarian) was over 50 µM. It also gave a TGI (OVCAR-3 ovarian) of over 50 µM, a GI50 (RPMI-8226 leukemia) of 35.9 µM and a TGI (RPMI-8226 leukemia) of over 50 µM. It also gave a GI50 (UACC-62 melanoma) of over 50 µM, a TGI (UACC-62 melanoma) of over 50 µM and a GI50 (HCC-2998 colon) of over 50 µM. For the same compound, the TGI (HCC-2998 colon) was over 50 µM, the GI50 (OVCAR-4 ovarian) was 22 µM and the TGI (OVCAR-4 ovarian) was over 50 µM. The TGI (MOLT-4 leukemia) was over 5 µM, the GI50 (UO-31 renal) was over 50 µM and the TGI (UO-31 renal) was over 50 µM. The TGI (SNB-78 CNS) was over 5 µM, the TGI (ACHN renal) was over 5 µM and the GI50 (SNB-75 CNS) was over 50 µM. For the same compound, the TGI (SNB-75 CNS) was over 50 µM, the GI50 (OVCAR-8 ovarian) was over 50 µM and the TGI (OVCAR-8 ovarian) was over 50 µM. It also gave a GI50 (786-0 renal) of over 50 µM, a TGI (786-0 renal) of over 50 µM and a GI50 (IGROV1 ovarian) of over 50 µM. It also gave a TGI (IGROV1 ovarian) of over 50 µM, a TGI (RXF 393 renal) of over 50 µM and a GI50 (NCI-H226 lung) of over 50 µM. The TGI (NCI-H226 lung) was over 50 µM, the GI50 (M19-MEL melanoma) was over 50 µM and the TGI (M19-MEL melanoma) was over 50 µM. For the same compound, the GI50 (M14 melanoma) was over 50 µM, the TGI (M14 melanoma) was over 50 µM and the GI50 (NCI-H460 lung) was over 50 µM. The TGI (NCI-H460 lung) was over 50 µM, the GI50 (SK-MEL-2 melanoma) was over 50 µM and the TGI (SK-MEL-2 melanoma) was over 50 µM. The GI50 (HL-60(TB) leukemia) was over 50 µM, the TGI (HL-60(TB) leukemia) was over 50 µM and the GI50 (A549 NSCLC) was over 50 µM. It also gave a TGI (A549 NSCLC) of over 50 µM, a GI50 (SF-539 CNS) of over 50 µM and a TGI (SF-539 CNS) of over 50 µM. It also gave a GI50 (KM20L2 colon) of over 50 µM, a TGI (KM20L2 colon) of over 50 µM and a GI50 (HOP-92 NSCLC) of over 50 µM. The TGI (HOP-92 NSCLC) was over 50 µM, the GI50 (U251 CNS) was over 50 µM and the TGI (U251 CNS) was over 50 µM. For the same compound, the GI50 (OVCAR-5 ovarian) was over 50 µM, the TGI (OVCAR-5 ovarian) was over 50 µM and the GI50 (MALME-3M melanoma) was over 50 µM. It also gave a TGI (MALME-3M melanoma) of over 50 µM, a TGI (SR leukemia) of over 5 µM and a GI50 (LXFL 529 NSCLC) of over 50 µM. The TGI (LXFL 529 NSCLC) was over 50 µM, the GI50 (UACC-257 melanoma) was over 50 µM and the TGI (UACC-257 melanoma) was over 50 µM. It also gave a GI50 (SK-MEL-28 melanoma) of over 50 µM, a TGI (SK-MEL-28 melanoma) of over 50 µM and a GI50 (DMS 114 small cell lung) of over 50 µM. For the same compound, the TGI (DMS 114 small cell lung) was over 50 µM, the GI50 (SNB-19 CNS) was over 50 µM and the TGI (SNB-19 CNS) was over 50 µM. For the same compound, the GI50 (A498 renal) was over 50 µM, the TGI (A498 renal) was over 50 µM and the GI50 (KM12 colon) was over 50 µM. The TGI (KM12 colon) was over 50 µM, the TGI (HOP-18 NSCLC) was over 5 µM and the GI50 (SF-295 CNS) was over 50 µM. For the same compound, the TGI (SF-295 CNS) was over 50 µM, the GI50 (HCT-15 colon) was over 50 µM and the TGI (HCT-15 colon) was over 50 µM. It also gave a GI50 (DMS 273 small cell lung) of over 50 µM, a TGI (DMS 273 small cell lung) of over 50 µM and a GI50 (HOP-62 NSCLC) of over 50 µM. For the same compound, the TGI (HOP-62 NSCLC) was over 50 µM, the GI50 (SK-OV-3 ovarian) was over 50 µM and the TGI (SK-OV-3 ovarian) was over 50 µM. It also gave a GI50 (SN12C renal) of over 50 µM, a TGI (SN12C renal) of over 50 µM and a GI50 (K-562 leukemia) of over 50 µM. The TGI (K-562 leukemia) was over 50 µM, the GI50 (COLO 205 colon) was over 50 µM and the TGI (COLO 205 colon) was over 50 µM. It also gave a GI50 (TK-10 renal) of over 50 µM, a TGI (TK-10 renal) of over 50 µM and a GI50 (SF-268 CNS) of over 50 µM. The TGI (SF-268 CNS) was over 50 µM, the GI50 (SW-620 colon) was over 50 µM and the TGI (SW-620 colon) was over 50 µM. It also gave a TGI (CAKI-1 renal) of over 5 µM, a GI50 (CCRF-CEM leukemia) of 44.6 µM and a TGI (CCRF-CEM leukemia) of over 50 µM. For the same compound, the GI50 (HT29 colon) was 47.8 µM, the TGI (HT29 colon) was over 50 µM and the GI50 (SK-MEL-5 melanoma) was over 50 µM. The TGI (SK-MEL-5 melanoma) was over 50 µM.

Reference: PubChem BioAssay (NCI)
